Results from PMC9078525, “Inhibitory effects of garcinone E on fatty acid synthase” (RSC Advances, 2018).
Where two headings read alike, the source gives them in different places.

Columns and labels:
[1] = molecular target: T1, chicken FAS (overall reaction) (Gallus gallus, UniProt P12276); test: Time-dependent (slow-binding irreversible) inactivation of FAS overall reaction; assay type: biochemical
T1 construct: tissue Huadu Broiler Corporation, Beijing; host or cells: chicken liver
Experimental: (§1) Assay of time-dependent inhibition activity was carried out as previous described.[13] The FAS solution was mixed with garcinone E and incubated at 25 °C, and then aliquots were taken to measure the remaining activity at the indicated time intervals to obtain the time course. […] The rate constant of FAS inactivation can be calculated from a semi-log plot of the time course, which is based upon the formula ln At/A0 = −kobst. The At/A0 expresses the remaining activity at t time, and kobs is the observed rate constant. Based on earlier studies, the inhibition of FAS activity is due to both fast-binding and time-dependent inhibitions, although sometimes the fast-binding reversible inhibition is not potent enough to affect the enzyme.

FAS = conditions: cited from earlier work
[2] = molecular target: T2, KR (β-ketoacyl reductase) of chicken FAS (Gallus gallus, UniProt P12276); test: Fast-binding inhibition of β-ketoacyl reduction (KR) activity of FAS; assay type: biochemical; conditions: fast-binding reversible inhibition, 37 °C
T2 construct: tissue Huadu Broiler Corporation, Beijing; host or cells: chicken liver
T2 sequence (P12276 whole entry): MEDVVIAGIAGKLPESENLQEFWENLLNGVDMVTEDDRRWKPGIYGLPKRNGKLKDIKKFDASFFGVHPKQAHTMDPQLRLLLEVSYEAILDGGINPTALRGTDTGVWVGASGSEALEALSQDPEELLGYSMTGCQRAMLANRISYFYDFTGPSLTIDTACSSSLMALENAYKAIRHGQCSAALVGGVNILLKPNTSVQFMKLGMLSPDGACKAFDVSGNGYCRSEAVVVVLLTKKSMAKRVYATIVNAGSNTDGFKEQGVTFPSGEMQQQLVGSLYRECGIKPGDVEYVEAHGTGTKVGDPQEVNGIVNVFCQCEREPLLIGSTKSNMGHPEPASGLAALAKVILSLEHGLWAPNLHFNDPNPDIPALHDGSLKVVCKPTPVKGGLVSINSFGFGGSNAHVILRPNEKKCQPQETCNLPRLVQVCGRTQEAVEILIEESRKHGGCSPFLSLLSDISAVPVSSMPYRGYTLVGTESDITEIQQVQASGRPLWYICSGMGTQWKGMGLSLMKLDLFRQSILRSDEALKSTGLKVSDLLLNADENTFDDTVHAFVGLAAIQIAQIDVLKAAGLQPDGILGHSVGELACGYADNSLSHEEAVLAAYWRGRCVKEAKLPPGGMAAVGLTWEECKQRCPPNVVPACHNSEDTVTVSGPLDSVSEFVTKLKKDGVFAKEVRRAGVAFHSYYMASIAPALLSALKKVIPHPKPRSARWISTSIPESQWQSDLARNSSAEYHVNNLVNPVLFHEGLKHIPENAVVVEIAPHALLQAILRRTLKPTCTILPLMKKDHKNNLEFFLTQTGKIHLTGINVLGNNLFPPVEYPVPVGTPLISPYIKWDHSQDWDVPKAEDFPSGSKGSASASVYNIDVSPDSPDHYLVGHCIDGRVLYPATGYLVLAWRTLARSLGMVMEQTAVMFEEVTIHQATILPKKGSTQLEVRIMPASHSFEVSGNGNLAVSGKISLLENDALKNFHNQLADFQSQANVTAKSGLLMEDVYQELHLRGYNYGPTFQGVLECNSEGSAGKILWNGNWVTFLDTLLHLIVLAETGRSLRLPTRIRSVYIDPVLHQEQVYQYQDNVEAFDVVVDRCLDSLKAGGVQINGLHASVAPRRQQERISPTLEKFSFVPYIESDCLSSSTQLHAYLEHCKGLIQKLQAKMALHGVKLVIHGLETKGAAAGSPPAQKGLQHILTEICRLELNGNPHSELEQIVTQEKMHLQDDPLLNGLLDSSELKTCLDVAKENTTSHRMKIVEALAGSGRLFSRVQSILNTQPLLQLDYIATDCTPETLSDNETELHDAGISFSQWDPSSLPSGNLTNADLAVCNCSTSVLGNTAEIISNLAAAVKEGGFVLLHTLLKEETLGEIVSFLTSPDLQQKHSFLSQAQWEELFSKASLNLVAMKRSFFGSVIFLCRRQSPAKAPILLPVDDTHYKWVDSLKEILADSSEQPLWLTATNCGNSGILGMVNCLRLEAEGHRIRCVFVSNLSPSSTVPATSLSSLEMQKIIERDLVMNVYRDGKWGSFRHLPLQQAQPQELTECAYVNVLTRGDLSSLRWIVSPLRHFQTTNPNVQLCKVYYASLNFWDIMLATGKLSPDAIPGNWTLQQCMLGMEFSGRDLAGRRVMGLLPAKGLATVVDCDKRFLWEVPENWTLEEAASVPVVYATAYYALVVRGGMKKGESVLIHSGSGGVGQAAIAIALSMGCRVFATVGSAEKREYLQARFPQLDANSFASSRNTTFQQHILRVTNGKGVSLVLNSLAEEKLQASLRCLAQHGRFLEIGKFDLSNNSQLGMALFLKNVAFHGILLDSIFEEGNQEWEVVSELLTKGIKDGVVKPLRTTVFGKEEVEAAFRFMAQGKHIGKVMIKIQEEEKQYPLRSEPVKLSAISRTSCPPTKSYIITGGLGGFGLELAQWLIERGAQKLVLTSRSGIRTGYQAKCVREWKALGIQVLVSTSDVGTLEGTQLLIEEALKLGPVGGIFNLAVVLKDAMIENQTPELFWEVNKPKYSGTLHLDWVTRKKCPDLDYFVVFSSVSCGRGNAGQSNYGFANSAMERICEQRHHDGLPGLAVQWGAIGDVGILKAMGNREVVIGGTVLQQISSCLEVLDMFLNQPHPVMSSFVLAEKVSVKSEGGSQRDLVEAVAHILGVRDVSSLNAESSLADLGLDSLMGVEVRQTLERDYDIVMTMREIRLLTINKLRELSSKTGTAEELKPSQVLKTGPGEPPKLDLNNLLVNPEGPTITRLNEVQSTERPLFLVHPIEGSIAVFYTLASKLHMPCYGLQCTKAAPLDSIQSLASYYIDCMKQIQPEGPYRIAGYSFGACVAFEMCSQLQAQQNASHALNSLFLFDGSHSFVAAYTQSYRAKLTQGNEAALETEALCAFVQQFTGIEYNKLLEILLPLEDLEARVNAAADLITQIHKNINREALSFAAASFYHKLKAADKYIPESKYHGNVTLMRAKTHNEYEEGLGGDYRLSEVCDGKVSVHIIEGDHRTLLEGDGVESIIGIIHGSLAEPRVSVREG
Experimental: (§2) The preparation of FAS from chicken liver (Huadu Broiler Corporation, Beijing) was performed as described previously.[24] The amino acid sequence of chicken FAS has 63% identity with the sequence of human enzyme.[25] All animal operations followed the Guidelines for the Care and Use of Laboratory Animals established by the National Research Council (US) Institute for Laboratory Animal Research. The purified FAS was homogenized by polyacrylamide gel electrophoresis in the presence and absence of sodium dodecyl sulfate, respectively.
(§3) The FAS activity was measured at 37 °C by spectrophotometer at 340 nm of NADPH absorption. The overall reaction system contained 100 mM KH2PO4–K2HPO4 buffer, 1 mM EDTA, 1 mM dithiothreitol, 3 μM Ac-CoA, 10 μM Mal-CoA, 35 μM NADPH, and 10 μg FAS in a total volume of 2 ml as previously described.[26,27] The assay for β-ketoacyl reduction activity of FAS was catalyzed by KR containing 100 mM KH2PO4–K2HPO4 buffer, 200 mM ethyl acetoacetate, 35 μM NADPH, and 20 μg FAS in a total volume of 2 ml (pH 7.0).
(§4) The activity of KR was determined at 37 °C by measuring the change of absorption at 340 nm. The KR reaction mixture (2 ml) contained 40 mM ethyl acetoacetate, 35 μM NADPH, 1 mM EDTA, 1 mM DTT and 10 μg of FAS in 100 mM phosphate buffer, pH 7.0.[28]

[3] = molecular target: T1, chicken FAS (overall reaction); test: Enzyme inhibition kinetics (double reciprocal plots, variable substrate); assay type: biochemical; conditions: for Ki: secondary plot of slopes, read-out: Inhibition constant Kis; for Inhibition constant Kii: secondary plot of intercepts
Text: Possible interference by the inhibitor at each substrate binding site was examined by holding the concentration of the inhibitor at several fixed levels respectively, and increasing one substrate concentration while keeping the concentrations of the other substrates constant. Double reciprocal plots for every concentration of the inhibitor were yielded to estimate the competitive relationship between the variable substrate and inhibitor concentrations. This study is based on fast-binding inhibition.
Inhibition kinetics study was carried out to elucidate the mechanism of the reversible inhibition of FAS by garcinone E. Possible interference by garcinone E at each substrate-binding site was examined by holding the concentration of garcinone E at a constant value, and measuring the effect of increasing one substrate concentration (the concentrations of the other two substrates were fixed) on the initial reaction rate. Double-reciprocal plots of the results (Fig. 3A–C) yielded three families of straight lines, which had different intersections, for three substrates of FAS. […] However, the lines for NADPH (Fig. 3C) intersected on the X axis, from which it was concluded that garcinone E was a typically noncompetitive inhibitor of FAS against NADPH.
Fig. 3 Lineweaver–Burke plots for inhibition of FAS activity by garcinone E. Double reciprocal plots for inhibition of FAS by garcinone E. The activity of the overall reaction of FAS was measured. (A) The concentrations of Mal-CoA and NADPH were fixed at 10 μM and 35 μM, respectively. Ac-CoA was the variable substrate. […] (B) The concentrations of Ac-CoA and NADPH were fixed at 3 μM and 35 μM, respectively. Mal-CoA was the variable substrate. […] (C) The concentrations of Ac-CoA and Mal-CoA were fixed at 3 μM and 10 μM, respectively. NADPH was the variable substrate. […] Each datum was the mean from 2–5 experiments.

chicken FAS = molecular target: T3, chicken FAS (Gallus gallus, UniProt P12276); test: Substrate protection for time-dependent inactivation of FAS; assay type: biochemical; conditions: 10.0 μM garcinone E
T3 construct: tissue Huadu Broiler Corporation, Beijing; host or cells: chicken liver
T3 sequence (P12276 whole entry): as above
Experimental: as §1
Furthermore, substrate protection for time-dependent inhibition was examined in the measurement of FAS inactivation by garcinone E with 10 μM Ac-CoA, 10 μM Mal-CoA, or 10 μM NADPH, respectively. Inactivation in the same condition but without any substrate was the control. […] Therefore, the substrates of Mal-CoA and NADPH had no obvious protection effect. However, the inactivation was slowed by Ac-CoA.

[4] = molecular target: T2, KR (β-ketoacyl reductase) of chicken FAS; test: Time-dependent inactivation of KR reaction of FAS; assay type: biochemical
Experimental: as §4, §1

[5] = molecular target: T1, chicken FAS (overall reaction); test: Fast-binding inhibition of FAS overall reaction (NADPH absorption at 340 nm); assay type: biochemical; conditions: fast-binding reversible inhibition, 37 °C; read-out: IC50 (half-inhibitory concentration), overall reaction of FAS
Experimental: as §2, §3
Reversible inhibition was determined by adding the inhibitor to the reaction system before the reaction was initiated. The activities of FAS in the presence and absence of garcinone E (dissolved in DMSO) were designated as Ai and A0 respectively. The value of Ai/A0 × 100% was defined as the relative activity (R.A.) of FAS. […]

T1 sequence (P12276 whole entry): as above

COc1cc2oc3cc(O)c(OC)c(CC=C(C)C)c3c(=O)c2c(O)c1CC=C(C)C [β-mangostin]
time-dependent (slow-binding irreversible) inhibition of FAS overall reaction, in words [1]: none of them showed slow-binding inactivation

O=C(O[C@@H]1Cc2c(O)cc(O)cc2O[C@@H]1c1cc(O)c(O)c(O)c1)c1cc(O)c(O)c(O)c1 [EGCG, epigallocatechin gallate]
IC50 (FAS): 52 µM

COc1c(O)cc2oc3cc(O)c(CC=C(C)C)c(O)c3c(=O)c2c1CC=C(C)C [α-mangostin]
time-dependent (slow-binding irreversible) inhibition of FAS overall reaction, in words [1]: none of them showed slow-binding inactivation

CC(C)=CCc1c(O)cc2oc3c(CC=C(C)C)c(O)c(O)c(CC=C(C)C)c3c(=O)c2c1O [garcinone E, 2,3,6,8-tetrahydroxy-1,4,7-tris(3-methylbut-2-enyl)-9H-xanthen-9-one]
IC50 [2]: 14.6 µM
time-dependent (slow-binding irreversible) inhibition of FAS overall reaction, in words [1]: slow-binding irreversible inhibition
fold difference in inactivation rate between overall reaction and KR ([1]; 20.0 μM garcinone E): more than 20 fold
Inhibitory manner ([3]; variable substrate Ac-CoA, Mal-CoA 10 μM, NADPH 35 μM): Competitive
Ki ([3]; variable substrate Ac-CoA): 1.77 µM
Inhibitory manner ([3]; variable substrate Mal-CoA, Ac-CoA 3 μM, NADPH 35 μM): Mixed competitive and noncompetitive
Inhibition constant Kii ([3]; variable substrate Mal-CoA, binding with enzyme-substrate complex): 5.99 µM
Ki ([3]; variable substrate Mal-CoA): 3.89 µM
Inhibitory manner ([3]; variable substrate NADPH, Ac-CoA 3 μM, Mal-CoA 10 μM): Noncompetitive
Inhibition constant Kii ([3]; variable substrate NADPH): 2.67 µM
Ki ([3]; variable substrate NADPH): 1.94 µM
kobs for inactivation of FAS (chicken FAS; no protection): 17.4 10^−3 min^−1
reduction of apparent rate constant by pre-incubation with substrate (chicken FAS; pre-incubation with Mal-CoA and NADPH): less than 10%
kobs for inactivation of FAS (chicken FAS; protection by 10 μM Ac-CoA): 5.3 10^−3 min^−1
kobs for inactivation of FAS (chicken FAS; protection by 10 μM Mal-CoA): 16.6 10^−3 min^−1
kobs for inactivation of FAS (chicken FAS; protection by 10 μM NADPH): 15.9 10^−3 min^−1
irreversible inhibition on KR, in words [4]: very weak
kobs of FAS inactivation, KR ([4]; 20.0 μM garcinone E, incubated at 25 °C): 0.0004 min⁻¹
IC50 [5]: 3.3 µM

C/C=C/C/C=C/CCC(=O)[C@H]1O[C@H]1C(N)=O [cerulenin]
IC50 (FAS): 89 µM

CC(C)=CCc1c(O)cc2oc3cc(O)c(O)c(CC=C(C)C)c3c(=O)c2c1O [γ-mangostin]
time-dependent (slow-binding irreversible) inhibition of FAS overall reaction, in words [1]: none of them showed slow-binding inactivation
